Key:
[1] = system: HL60 (promyelocytic leukemia) cells; test: MTT antiproliferative assay, HL60; assay type: cell-based, human; details: for IC50: Homo sapiens, HL-60, 72 h, MTT, mean ± SD of three independent experiments; for SI (BJ) HL60: SI = IC50 BJ / IC50 HL60; for SI (MDCK) HL60: SI = IC50 MDCK1 / IC50 HL60
Procedure: (§1) The growth inhibition activity was assessed according to the slightly modified procedure performed at the National Cancer Institute, Developmental Therapeutics Program.
(§2) Examined compounds were dissolved in DMSO (1 × 10^−2 M). The experiments were carried out on seven human tumor cell lines and two normal cell lines. The following cell lines were used: HeLa (human cervical adenocarcinoma; purchased from ATCC), CaCo-2 (human colorectal adenocarcinoma), HuT78 (T-cell lymphoma), THP-1 (acute monocytic leukemia), SW620 (colorectal adenocarcinoma, metastatic), MDA-MB-231 (human breast adenocarcinoma), HL60 (promyelocytic leukemia cell line), foreskin fibroblast cells (BJ) and MDCK1 (Madine–Darby canine kidney fibroblast like cells). MDCK1 cells were used between 24 and 26 passages.
(§3) Adherent cells were cultured in the Dulbecco’s modified Eagle medium—DMEM (Gibco, EU) supplemented with 10 % heat-inactivated fetal bovine serum (FBS, Gibco, EU), 2 mM glutamine, and 100 U/0.1 mg penicillin/streptomycin. Cells on suspension were cultured in RPMI 1640 (Gibco, EU) medium supplemented with 10 % FBS (Gibco, EU), 2 mM glutamine, 1 mM sodium pyruvate, 10 mM HEPES. Cells were grown in humidified atmosphere under the conditions of 37 °C/5% of CO2 gas in the CO2 incubator (IGO 150 CELLlife^TM, JOUAN, Thermo Fisher Scientific, Waltham, MA, USA). A erythrosin B (Sigma-Aldrich, St. Louis, MO, USA) dye exclusion method was used to assess cell viability before plating.
(§4) Adherent cells (HeLa, CaCo-2, MCF-7 and MDCK-1) were plated in 96-well flat bottom plates (Greiner, Frickenhausen, Austria) at a concentration of 2 × 10^4 cells/mL. Suspension cells (THP-1 and HuT78) were plated in 96-well microtiter plates (Sarstead, Newton, USA) at a concentration of 1 × 10^5 cells/mL. Twenty-four hours later, cells were treated with test agents in […] 10-fold dilutions ([…] to 10^−4 M) and incubated for further 72 h. Working dilutions were freshly prepared on the day of testing. The solvent was also tested for eventual inhibitory activity by adjusting its concentration to be the same as in working concentrations. After 72 h of incubation, the cell growth rate was evaluated by performing the MTT assay, which detects dehydrogenase activity in viable cells. For this purpose, upon completion of the incubation period, growth medium was discarded and 50 μL of MTT was added to each well at a concentration of 5 mg/mL. After four hours of incubation at 37 °C, water insoluble MTT-formazan crystals were dissolved in 150 μL of dimethyl-sulfoxide (DMSO) for adherent cells, and in 10 % SDS with 0.01 M/L HCl for cells grown in suspension. The absorbance (OD, optical density) was measured on a microplate reader (iMark, BIO RAD, Hercules, CA, USA) at 595 nm.
(§5) Percent of life cells was calculated as follows: % = OD (sample)–OD (background)/OD (control)–OD (background) × 100.
(§6) Optical density (OD) of background for adherent cells is the OD of MTT solution and DMSO; OD (background) for suspension cells is OD of the culture medium with MTT and 10% SDS with 0.01 M/L HCl; OD (control) is the OD of the cells growth without tested compounds.
(§7) Calculation of GI50 value curves and QC analysis is performed by using the Excel tools and GraphPadPrism software (La Jolla, CA), v. 5.03. Briefly, individual concentration effect curves are generated by plotting the logarithm of the concentration of tested compounds(X) vs. corresponding percent inhibition values (Y) using least squares fit. The best fit GI50 values are calculated using Log (inhibitor) versus normalized response—Variable slope equation, where Y Ľ 100/(1 ţ 10 ((LogIC50 _ X) * HillSlope)). QC criteria parameters (Z0, S:B, R2, HillSlope) were checked for every GI50 curve.

[2] = system: HeLa (cervical adenocarcinoma) cells; test: MTT antiproliferative assay, HeLa; assay type: cell-based; details: Homo sapiens, 72 h, mean ± SD of three independent experiments
Summary of the method: (§8)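 Cells were exposed 24 h after plating to five 10-fold dilutions (10^−7 to 10^−4 M, from 1 × 10^−2 M DMSO stock) for 72 h at 37 °C. MTT was read at 595 nm and percent viable cells computed against untreated control. GI50 came from variable-slope log(inhibitor) vs normalized response fits.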

[3] = system: THP1 (human monocytic leukemia) cells; test: MTT antiproliferative assay, THP1; assay type: cell-based; details: for IC50: Homo sapiens, THP-1, 72 h, MTT, mean ± SD of three independent experiments; for SI (BJ) THP1: SI = IC50 BJ / IC50 THP1; for SI (MDCK) THP1: SI = IC50 MDCK1 / IC50 THP1
Procedure: as §1, §2, §3, §4, §5, §6, §7

[4] = system: MDCK1 (Madin–Darby canine kidney) cells; test: MTT antiproliferative assay, non-tumor MDCK1 cells; assay type: cell-based; details: Canis lupus familiaris, MDCK1, 72 h, mean ± SD of three independent experiments, normal cells
Summary of the method: as §8

[5] = system: human fibroblasts (BJ); test: MTT antiproliferative assay, normal BJ fibroblasts; assay type: cell-based; details: for IC50: Homo sapiens, Fibroblast, 72 h, MTT, mean ± SD of three independent experiments, normal cells
Summary of the method: as §8

[6] = system: CaCo-2 (colon adenocarcinoma) cells; test: MTT antiproliferative assay, CaCo-2; assay type: cell-based, human; details: for IC50: Homo sapiens, Caco-2, 72 h, MTT, mean ± SD of three independent experiments; for SI (MDCK) CaCo-2: SI = IC50 MDCK1 / IC50 CaCo-2
Summary of the method: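 CaCo-2 cells, plated at 2 × 10^4 cells/mL in DMEM with 10 % FBS at 37 °C/5% CO2, were treated 24 h later with five 10-fold dilutions (10^−7 to 10^−4 M) for 72 h. Viability was measured by MTT (4 h, formazan dissolved in DMSO, OD 595 nm) against background and untreated controls. GI50 came from log-concentration versus percent-inhibition fits.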

[7] = system: SW620 (colorectal adenocarcinoma, metastatic) cells; test: MTT antiproliferative assay, SW620; assay type: cell-based, human; details: for IC50: Homo sapiens, SW-620, 72 h, MTT, mean ± SD of three independent experiments, read-out: IC50 (µM) SW620
Procedure: as §1, §2, §3, §4, §5, §6, §7

[8] = system: HuT78 (T-cell lymphoma) cells; test: MTT antiproliferative assay, HuT78; assay type: cell-based, human; details: for IC50: 72 h, MTT, mean ± SD of three independent experiments; for SI (BJ) HuT78: SI = IC50 BJ / IC50 HuT78; for SI (MDCK) HuT78: SI = IC50 MDCK1 / IC50 HuT78
Summary of the method: as §8

[9] = system: MDA-MB-231 (human breast adenocarcinoma) cells; test: MTT antiproliferative assay, MDA-MB-231; assay type: cell-based; details: for IC50: Homo sapiens, MDA-MB-231, 72 h, MTT, mean ± SD of three independent experiments; for SI (MDCK) MDA-MB-231: SI = IC50 MDCK1 / IC50 MDA-MB-231
Procedure: as §1, §2, §3, §4, §5, §6, §7

With `O=C(COc1ccc(-c2nc3ccc(C4=NCCCN4)cc3s2)cc1F)c1ccccc1` [38b] the IC50 [1] was 15.8 ± 2.3 µM, the “SI (BJ) HL60” value [1] was 2.04 and the “SI (MDCK) HL60” value [1] was 1.68. For the same compound, the IC50 [2] was 22.1 ± 1.2 µM, the IC50 [3] was 14.7 ± 4.1 µM and the “SI (BJ) THP1” value [3] was 2.19. For the same compound, the “SI (MDCK) THP1” value [3] was 1.8, the IC50 [4] was 26.6 ± 3.1 µM and the IC50 [5] was 32.2 ± 2.8 µM. The IC50 [6] was 19.4 ± 4.7 µM, the “SI (BJ) CaCo-2” value ([6]; SI = IC50 BJ / IC50 CaCo-2) was 1.66 and the “SI (MDCK) CaCo-2” value [6] was 1.37. The IC50 [7] was 30.5 ± 9.2 µM, the IC50 ([8]; Homo sapiens, HuT78, 72 h) was 4 ± 0.9 µM and the “SI (BJ) HuT78” value [8] was 8.05. The “SI (MDCK) HuT78” value [8] was 6.65 and the IC50 [9] was 42.4 ± 7.2 µM.
With `COc1cc(-c2nc3ccc(C4=NCCCN4)cc3s2)ccc1OCc1ccccn1` [39c] the IC50 [1] was 31.1 ± 3 µM, the “SI (MDCK) HL60” value [1] was 3.22 and the IC50 [2] was greater than 100 µM. For the same compound, the IC50 [3] was 69.7 ± 6.3 µM, the “SI (MDCK) THP1” value [3] was 1.43 and the IC50 [4] was greater than 100 µM. For the same compound, the IC50 [5] was 38.1 ± 1.4 µM, the IC50 [6] was 34.7 ± 2.8 µM and the “SI (MDCK) CaCo-2” value [6] was 2.87. The IC50 [7] was 34.2 ± 7.1 µM, the “SI (MDCK) SW620” value ([7]; SI = IC50 MDCK1 / IC50 SW620) was 2.92 and the IC50 ([8]; Homo sapiens, HuT78, 72 h) was 12.7 ± 0.9 µM. The “SI (BJ) HuT78” value [8] was 3, the “SI (MDCK) HuT78” value [8] was 7.87 and the IC50 [9] was 38.5 ± 1.6 µM. For the same compound, the “SI (MDCK) MDA-MB-231” value [9] was 2.6.
In the case of `O=C(COc1ccc(-c2nc3ccc(C4=NCCCN4)cc3[nH]2)cc1)c1ccccc1` [42a], the IC50 [1] is reported as 33.2 ± 1.8 µM, the “SI (BJ) HL60” value [1] is reported as 3.01 and the “SI (MDCK) HL60” value [1] is reported as 3.01. For the same compound, the IC50 [2] was greater than 100 µM, the IC50 [3] was 44.5 ± 5.3 µM and the “SI (BJ) THP1” value [3] was 2.25. The “SI (MDCK) THP1” value [3] was 2.25, the IC50 [4] was greater than 100 µM and the IC50 [5] was greater than 100 µM. It also gave an IC50 [6] greater than 100 µM, an IC50 [7] greater than 100 µM and an IC50 ([8]; Homo sapiens, HuT78, 72 h) of 7 ± 5.2 µM. For the same compound, the “SI (BJ) HuT78” value [8] was 14.29, the “SI (MDCK) HuT78” value [8] was 14.29 and the IC50 [9] was 76.3 ± 11.8 µM. The “SI (BJ) MDA-MB-231” value ([9]; SI = IC50 BJ / IC50 MDA-MB-231) was 1.31 and the “SI (MDCK) MDA-MB-231” value [9] was 1.31.
`O=C(COc1ccc(-c2nc3ccc(C4=NCCCN4)cc3[nH]2)cc1F)c1ccccc1` [42b] was tested, and the IC50 [1] was 44.4 ± 12.6 µM, the “SI (MDCK) HL60” value [1] was 1.51 and the IC50 [2] was greater than 100 µM. It also gave an IC50 [3] greater than 100 µM, an IC50 [4] of 67.3 ± 12.7 µM and an IC50 [5] of 47 ± 3.3 µM. The IC50 [6] was greater than 100 µM, the IC50 [7] was 92.7 ± 34.3 µM and the IC50 ([8]; Homo sapiens, HuT78, 72 h) was 11.9 ± 3.6 µM. The “SI (BJ) HuT78” value [8] was 3.95, the “SI (MDCK) HuT78” value [8] was 5.66 and the IC50 [9] was 84.5 ± 18.3 µM.
`c1ccc(COc2ccc(-c3nc4ccc(C5=NCCCN5)cc4[nH]3)cc2)nc1` [43a] was tested, and the IC50 [1] was 40.4 ± 12 µM, the “SI (MDCK) HL60” value [1] was 2.48 and the IC50 [2] was greater than 100 µM. The IC50 [3] was 29.7 ± 8.6 µM, the “SI (MDCK) THP1” value [3] was 3.37 and the IC50 [4] was greater than 100 µM. It also gave an IC50 [5] of 33 ± 20.3 µM, an IC50 [6] greater than 100 µM and an IC50 [7] greater than 100 µM. For the same compound, the IC50 ([8]; Homo sapiens, HuT78, 72 h) was 28.6 ± 3.9 µM, the “SI (MDCK) HuT78” value [8] was 3.5 and the IC50 [9] was greater than 100 µM.
For `COc1cc(-c2nc3ccc(C4=NCCCN4)cc3[nH]2)ccc1OCc1cn(CCN2CCOCC2)nn1` [46c], the IC50 [1] was 50.7 ± 20.5 µM, the “SI (BJ) HL60” value [1] was 1.97 and the “SI (MDCK) HL60” value [1] was 1.97. For the same compound, the IC50 [2] was greater than 100 µM, the IC50 [3] was greater than 100 µM and the IC50 [4] was greater than 100 µM. The “toxicity to normal BJ cells (in words)” value [5] was “not toxic”, the IC50 [5] was greater than 100 µM and the IC50 [6] was greater than 100 µM. The IC50 [7] was greater than 100 µM, the IC50 [8] was 5.1 ± 4.2 µM and the IC50 ([8]; Homo sapiens, HuT78, 72 h) was 4.1 µM. For the same compound, the “SI (MDCK) HuT78” value [8] was 19.6 and the IC50 [9] was greater than 100 µM.
